According to patent US8664400B2, “Triphenylamine derivatives useful as fluorophores in biology, in particular for two-photon microscopy” (Centre National de la Recherche Scientifique, priority 2006, dated 2014):
Like-named read-outs stand apart in the source and are kept apart here.

Key:
[1] = Photostability under irradiation with a 150 W xenon-mercury lamp; type: physicochemical; details: about thirty minutes
[2] = tested on: duplex DNA of 26 base pairs of self-complementary sequence (ds26); assay: Single-photon absorption and fluorescence emission in the presence of DNA; type: binding; details: for ΦF (quantum fluorescence yield) / ε / λabs. / λem.: DNA
herring testis DNA = assay: Two-photon absorption (TPIF) in the presence of DNA; type: physicochemical; details: for two-photon spectra in presence of DNA compared with glycerol: sodium cacodylate buffer 10 mM, pH 7.3, 5 equivalents herring testis DNA, all excitation wavelengths
Method: (§1) The two-photon absorption properties of the compounds according to the invention were assessed using the two-photon-induced fluorescence (TPIF) technique and by means of a Titanium:Sapphire femtosecond laser source with pulses of 90 fs to 76 MHz which can be tuned to 750-840 nm.

[3] = Emission and single-photon absorption properties in glycerol or sodium cacodylate buffer; type: physicochemical
ds26 DNA = assay: Affinity for DNA by fluorometric titration; type: binding; details: 10 mM sodium cacodylate buffer, pH 7.0, 100 mM NaCl
[4] = Two-photon absorption by two-photon-induced fluorescence (TPIF); type: physicochemical
Method: as §1

CHO K1 cells = assay: Epifluorescence and confocal microscopy of fixed, treated cells; type: cell-based, Chinese hamster
Method: The CHO-K1 cells, cultured beforehand in wells, on glass supports coated with polyornithine, containing a commercially available standard culture medium, were fixed using a formaldehyde (4%) solution in PBS.
The cells were then incubated, at room temperature and for 20 minutes, in the presence of the markers or mixtures of markers to be tested (in aqueous solution) and then washed with PBS buffer (13 mM NaCl, 0.27 mM KCl, 0.15 mM KH2PO4, 0.8 mM Na2HPO4, pH 7.4) in order to remove the excess marker. […] The cells were then prepared conventionally for microscopic examination.
Epifluorescence microscopy examinations were carried out with a Nikon Eclipse E 800 microscope fitted with a 60× (1.4) lens and a Nikon DXM 1200 digital apparatus, while the confocal microscopy examinations were carried out with a Leica DM6000 microscope comprising an SP2 unit equipped with a 63× (1.4) lens and an HeNe laser for excitation of the markers.

[5] = 36 μM, 20° C.; cited from earlier work
[6] = according to the literature; cited from earlier work
[7] = 10 mM sodium cacodylate, pH 7.0, 5 μM compound, 0.5 to 5 equivalents ds26

| SMILES | hypochromism caused by the presence of DNA [2, 7] | ΦF (quantum fluorescence yield) [2] | ε [2] | λabs. [2] | λem. [2] | two-photon spectra in presence of DNA compared with glycerol (herring testis DNA) | ε ([3]; Na cacodyl.) | λabs. ([3]; Na cacodyl.) | ΦF (quantum fluorescence yield) ([3]; glyc.) | ε ([3]; glyc.) | λabs. ([3]; glyc.) | λem. ([3]; glyc.) | also measured |
| --- | --- | --- | --- | --- | --- | --- | --- | --- | --- | --- | --- | --- | --- |
| CN1C(=CC=Cc2cc[n+](CCC[N+](C)(C)C)c3ccccc23)Sc2ccccc21.[I-].[I-] [TO-PRO-3, 1-(N,N,N-trimethylaminopropyl)-4-{2-[3-methyl-2,3-dihydro-(benzo-1,3-thiazole)-2-ethylidene]vinyl}quinolinium iodide, reference compound] |  |  |  |  |  |  |  |  |  |  |  |  | decrease of fluorescence emission during irradiation [1]: more than 40% |
| C[n+]1ccc(C=Cc2ccc(N(c3ccccc3)c3ccc(C=Cc4cc[n+](C)cc4)cc3)cc2)cc1.[I-].[I-] [TP-2Py, Bis[4-(2-N-methylpyridinium-4-ylvinyl)phenyl]phenylamine iodide] | about 20% | 0.07 | 31 400 L/mol · cm | 509 nm | 665 nm | identical to those previously observed in glycerol | 39 800 L/mol · cm | 474 nm | 0.112 | 37 400 L/mol · cm | 491 nm | 656 nm | shift of absorption spectra caused by the presence of DNA [2, 7]: shift towards the red region; δ (efficient two-photon absorption section) (herring testis DNA; DNA): 200 GM; molar extinction coefficient (ε) ([3]; in glycerol, at 474 nm): 37 400 L/mol·cm; dissociation constant Kd (ds26 DNA): of the order of the micromolar; δ (efficient two-photon absorption section) ([4]; glyc.): 315 GM; wavelength of relative maximum of two-photon absorption ([4]; in glycerol): ~820 nm |
| C[n+]1ccc(C=Cc2ccc(N(c3ccc(C=Cc4cc[n+](C)cc4)cc3)c3ccc(C=Cc4cc[n+](C)cc4)cc3)cc2)cc1.[I-].[I-].[I-] [TP-3Py, Tris[4-(2-N-methylpyridinium-4-ylvinyl)phenyl]amine iodide] | about 20% | 0.021 | 51 000 L/mol · cm | 499 nm | 684 nm | identical to those previously observed in glycerol | 59 000 L/mol · cm | 474 nm | 0.123 | 66 000 L/mol · cm | 491 nm | 665 nm | image quality of chromosomes (CHO K1 cells; CHO K1 cells in mitosis, 2 μM, phase contrast and confocal microscopies coupled): very high degree of sharpness and a high resolution; location of fluorescence in cells (CHO K1 cells; fixed CHO K1 cells, 2 μM compound with DAPI 3 μM, 20 minutes, epifluorescence microscopy): located exclusively in the nucleus; stability at the focal point of the microscope lens (CHO K1 cells; fixed CHO K1 cells, 2 μM, epifluorescence microscopy): very stable; effect of irradiation on fluorescence emission [1]: scarcely modified |
| CN1C(=Cc2cc[n+](C)c3ccccc23)Sc2ccccc21 [thiazole orange] |  |  |  |  |  |  |  |  |  |  |  |  | form in aqueous medium (aggregation) [5]: in the form of dimers |
| C(=Cc1ccc(N(c2ccc(C=Cc3ccncc3)cc2)c2ccc(C=Cc3ccncc3)cc2)cc1)c1ccncc1 [tris[4-(2-pyridin-4-ylvinyl)phenyl]amine, reference compound] |  |  |  |  |  |  |  |  |  |  |  |  | efficient two-photon absorption section [6]: 58 GM; two-photon excitation maximum ([4]; in dichloromethane): around 820 nm; efficient two-photon absorption section ([4]; measurements performed by the Inventors, in dichloromethane): 90 GM |
